Experimental data from US6346514B1, “Pharmaceutical lysine-containing polypeptide compositions and methods of use thereof” (priority 1991, dated 2002).

System: Vibrio anguillarum (V-775)
Assay: Vaccine augmentation in Rainbow trout challenged with Vibrio anguillarum
Type: in vivo, Rainbow trout (Oncorhynchus mykiss)
Description: In the present investigation, fish were obtained and inoculated at approximately 12 weeks of age. Immunologic studies were conducted under a variety of conditions in which fish were provided with vaccination to observe vaccine augmentation, and under conditions in which no vaccine was provided prior to inoculum. The effects of exposure time, HM897 concentration, and vaccine on mortalities relative to control studies in which no HM897 was administered provided data for analysis of the immunologic effect of HM897.
The study was conducted using Rainbow trout (Oncorhynchus mykiss) to compare the effects of a standard fish vaccine to the protection provided by varying dosages of HM897. The fish were challenged with Vibrio anguillarum (V-775), a bacteria that causes fatal vibriosis, typically 3-5 days following pathogen exposure.
Rainbow Trout (Oncorhynchus mykiss) weighing approximately 5 grams were used as test organisms. The fish were obtained from Cran-Mar Trout Farm. Upon arrival at BRL's facility, the fish were quarantined for a minimum of seven days, and observed to be disease free. During this period, the fish were held at a stable temperature. There was consistent water quality in an aerated flow-through system with a flow rate of approximately 30 liters per hour. During the holding period the fish were observed daily for signs of disease, stress, injury, hemorrhaging, and external parasite. The fish were not fed 48 hours prior to testing.
The Rainbow trout used in this study weighed an average of 5 grams. The fish were divided into 21 groups with 50 fish per group. Each group of 50 fish was maintained in two 10-gallon tanks (25 fish/tank).
The level of bacterial dilution to achieve a LD75 (the level designed to kill 75% of the non-vaccinated fish) was a dilution of 10^−4. to 10^−5. The challenge bacteria were grown for 48 hours at 25° C in trypticase soy broth. The 10^−4 dilution was made from this broth in 0.9% saline. All fish excepting the control group that received no bacterial challenge were inoculated 7 days after exposure to HM897.
Rainbow trout hatchling were exposed to the concentration of HM897 as described below. Some of the fish had been vaccinated while others had received no vaccination. In each tank, fifty vaccinated or unvaccinated fish were exposed for a period of 5 minutes to HM897, and then removed and placed in an assigned tank according to the group number.
The positive control group (III) received a vaccine made from Vibrio anguillarum (V-775). This was made through a fermentation and extraction process in the BRL laboratory facility and is equivalent to the aquaculture industry standard vibrio vaccine.
All groups scheduled to be challenged with the Vibrio anguillarum bacterium were challenged at the LD75 dilution on day seven of the experiment by i.p. injection of 0.1 mL of 10^−4 bacterial dilution. The fish were observed daily for mortalities.

Thr-Ala-Glu-Glu-Lys (TAEEK) [HM897]
Cumulative Mortalities (Day 17, Group IVd: vaccinated, HM897 100 μg/38 liters): 17 | Cumulative Mortalities (Day 17, Group Va: not vaccinated, HM897 10 μg/38 liters): 33 | Cumulative Mortalities (Day 17, Group Vb: not vaccinated, HM897 25 μg/38 liters): 33 | Cumulative Mortalities (Day 17, Group Vc: not vaccinated, HM897 75 μg/38 liters): 34 | Cumulative Mortalities (Day 18, Group IVa: vaccinated, HM897 2.5 μg/38 liters): 13 | Cumulative Mortalities (Day 18, Group IVb: vaccinated, HM897 10 μg/38 liters): 7 | Cumulative Mortalities (Day 18, Group IVc: vaccinated, HM897 50 μg/38 liters): 10 | Cumulative Mortalities (Day 18, Group IVd: vaccinated, HM897 100 μg/38 liters): 17 | Cumulative Mortalities (Day 18, Group Va: not vaccinated, HM897 10 μg/38 liters): 33 | Cumulative Mortalities (Day 18, Group Vb: not vaccinated, HM897 25 μg/38 liters): 33 | Cumulative Mortalities (Day 18, Group Vc: not vaccinated, HM897 75 μg/38 liters): 34 | Cumulative Mortalities (Day 18, Group Vd: not vaccinated, HM897 150 μg/38 liters): 32 | Cumulative Mortalities (Day 19, Group IVa: vaccinated, HM897 2.5 μg/38 liters): 13 | Cumulative Mortalities (Day 19, Group IVb: vaccinated, HM897 10 μg/38 liters): 7 | Cumulative Mortalities (Day 19, Group IVc: vaccinated, HM897 50 μg/38 liters): 10 | Cumulative Mortalities (Day 19, Group IVd: vaccinated, HM897 100 μg/38 liters): 17 | Cumulative Mortalities (Day 19, Group Va: not vaccinated, HM897 10 μg/38 liters): 33 | Cumulative Mortalities (Day 19, Group Vb: not vaccinated, HM897 25 μg/38 liters): 33 | Cumulative Mortalities (Day 19, Group Vc: not vaccinated, HM897 75 μg/38 liters): 34 | Cumulative Mortalities (Day 19, Group Vd: not vaccinated, HM897 150 μg/38 liters): 32 | Cumulative Mortalities (Day 20, Group IVa: vaccinated, HM897 2.5 μg/38 liters): 13 | Cumulative Mortalities (Day 20, Group IVb: vaccinated, HM897 10 μg/38 liters): 7 | Cumulative Mortalities (Day 20, Group IVc: vaccinated, HM897 50 μg/38 liters): 10 | Cumulative Mortalities (Day 20, Group IVd: vaccinated, HM897 100 μg/38 liters): 17 | Cumulative Mortalities (Day 20, Group Va: not vaccinated, HM897 10 μg/38 liters): 33 | Cumulative Mortalities (Day 20, Group Vb: not vaccinated, HM897 25 μg/38 liters): 33 | Cumulative Mortalities (Day 20, Group Vc: not vaccinated, HM897 75 μg/38 liters): 34 | Cumulative Mortalities (Day 20, Group Vd: not vaccinated, HM897 150 μg/38 liters): 32 | Cumulative Mortalities (Day 21, Group IVa: vaccinated, HM897 2.5 μg/38 liters): 13 | Cumulative Mortalities (Day 21, Group IVb: vaccinated, HM897 10 μg/38 liters): 7 | Cumulative Mortalities (Day 21, Group IVc: vaccinated, HM897 50 μg/38 liters): 10 | Cumulative Mortalities (Day 21, Group IVd: vaccinated, HM897 100 μg/38 liters): 17 | Cumulative Mortalities (Day 21, Group Va: not vaccinated, HM897 10 μg/38 liters): 33 | Cumulative Mortalities (Day 21, Group Vb: not vaccinated, HM897 25 μg/38 liters): 33 | Cumulative Mortalities (Day 21, Group Vc: not vaccinated, HM897 75 μg/38 liters): 34 | Cumulative Mortalities (Day 21, Group Vd: not vaccinated, HM897 150 μg/38 liters): 32 | Percent Mortalities (Group IVa: vaccinated, HM897 2.5 μg/38 liters): 26% | Percent Mortalities (Group IVb: vaccinated, HM897 10 μg/38 liters): 14% | Percent Mortalities (Group IVc: vaccinated, HM897 50 μg/38 liters): 20% | Percent Mortalities (Group IVd: vaccinated, HM897 100 μg/38 liters): 34% | Percent Mortalities (Group Va: not vaccinated, HM897 10 μg/38 liters): 66% | Percent Mortalities (Group Vb: not vaccinated, HM897 25 μg/38 liters): 66% | Percent Mortalities (Group Vc: not vaccinated, HM897 75 μg/38 liters): 68% | Percent Mortalities (Group Vd: not vaccinated, HM897 150 μg/38 liters): 64% | Percent Mortalities (Group Ve: not vaccinated, HM897 250 μg/38 liters): 68% | protection against the bacterial infection (HM897 exposure without vaccine (Groups Va to Ve)): no protection | Total Mortalities (Table XI-3, Group IVa: vaccinated, HM897 2.5 μg/38 liters): 13 | Total Mortalities (Table XI-3, Group IVb: vaccinated, HM897 10 μg/38 liters): 7 | Total Mortalities (Table XI-3, Group IVc: vaccinated, HM897 50 μg/38 liters): 10 | Total Mortalities (Table XI-3, Group IVd: vaccinated, HM897 100 μg/38 liters): 17 | Total Mortalities (Table XI-3, Group Va: not vaccinated, HM897 10 μg/38 liters): 33 | Total Mortalities (Table XI-3, Group Vb: not vaccinated, HM897 25 μg/38 liters): 33 | Total Mortalities (Table XI-3, Group Vc: not vaccinated, HM897 75 μg/38 liters): 34 | Total Mortalities (Table XI-3, Group Vd: not vaccinated, HM897 150 μg/38 liters): 32 | Total Mortalities (Table XI-3, Group Ve: not vaccinated, HM897 250 μg/38 liters): 34 | Total Mortalities (Table XI-4, Group IVa: vaccinated, HM897 2.5 μg/38 liters): 13 | Total Mortalities (Table XI-4, Group IVb: vaccinated, HM897 10 μg/38 liters): 7 | Total Mortalities (Table XI-4, Group IVc: vaccinated, HM897 50 μg/38 liters): 10 | Total Mortalities (Table XI-4, Group IVd: vaccinated, HM897 100 μg/38 liters): 17 | Total Mortalities (Table XI-4, Group Va: not vaccinated, HM897 10 μg/38 liters): 33 | Total Mortalities (Table XI-4, Group Vb: not vaccinated, HM897 25 μg/38 liters): 33 | Total Mortalities (Table XI-4, Group Vc: not vaccinated, HM897 75 μg/38 liters): 34 | Total Mortalities (Table XI-4, Group Vd: not vaccinated, HM897 150 μg/38 liters): 32 | Total Mortalities (Table XI-4, Group Ve: not vaccinated, HM897 250 μg/38 liters): 34 | augmentation of vaccinations (vaccinated fish exposed to HM897): statistically significant effect
